Data reported in patent US20080253967A1, “Halo-Stilbene Derivatives And Their Use For Binding And Imaging Of Amyloid Plaques” (priority 2007, published 2008).
Values joined by “and” are separate entries in the source; they are usually repeats but may differ in a detail not shown here. Identical values can stand only once. “Also recorded” adds a separate entry of the source. Like-named read-outs stand apart in the source and are kept apart here.

Legend:
fibrillar Aβ aggregates = fibrillar Aβ aggregates (Homo sapiens, UniProt P05067); details: read-out: Inhibition constants (Ki) for binding to fibrillar Aβ aggregates; cited from earlier work
[1] = Organ distribution in normal mice after i.v. injection; type: in vivo; details: for Biodistribution Brain (% dose/g in brain) / % total counted / % total recovered / Biodistribution Brain: normal male mice; for Brain penetration and clearance: normal mice
Description: While under isoflurane anesthesia, 0.15 ml of a 0.9% saline solution containing ^123I-15 (5-10 μCi) was injected directly into the tail vein of ICR mice (22-25 g, male). The mice (n=3 for each time point) were sacrificed, the organs of interest were removed, weighed, and assayed with an automatic gamma counter. The percentage dose per organ was calculated by a comparison of the tissue counts to suitably diluted aliquots of the injected material. Total activities of blood were calculated under the assumption that they were 7% of the total body weight. The % dose/g of samples was calculated by comparing the sample counts with the count of the diluted initial dose. […] Similar results were obtained in female mice.
While under isoflurane anesthesia, 0.15 ml of a 0.9% saline solution containing ^123I-1b-3 (5-10 μCi) was injected directly into the tail vein of ICR mice (22-25 g, male and female) The mice (n=3 for each time point per sex) were sacrificed, the organs of interest were removed, weighed, and assayed with an automatic gamma counter. The percentage dose per organ was calculated by a comparison of the tissue counts to suitably diluted aliquots of the injected material. Total activities of blood were calculated under the assumption that they were 7% of the total body weight. The % dose/g of samples was calculated by comparing the sample counts with the count of the diluted initial dose.

[2] = system: 46 CNS and Cardiovascular receptor binding sites; experiment: Binding at CNS and Cardiovascular Receptors (panel of 46 sites); details: 1 μM; inhibition >50% considered significant
Description: A panel of 46 CNS and Cardiovascular receptor binding sites, including adenosine, adrenergic, benzodiazepine, bombesin, dopamine, GABA, melatonin, muscarinic, neurotensin, nicotininc acetylcholine, opiate, potassium channel, serotonin, sigma, and several transporter subtypes, was tested for binding of Compound 15. […] Inhibition of binding in excess of 50% by Compound 15 was considered potentially significant.

amyloid plaques [3] = molecular target: T1, amyloid plaques (Homo sapiens, UniProt P05067); experiment: Inhibition of ^125I-IMPY binding in AD brain homogenates; details: read-out: Binding Affinity (Ki vs. ^125I-IMPY)
Description: Thus, inhibition of ^125I-IMPY binding in human AD brain homogenates was taken as an assay for the potential of test compounds to bind to amyloid plaques.
Postmortem brain tissue was obtained and neuropathological diagnosis was confirmed in accordance with the NIA-Reagan Institute Consensus Group criteria. Homogenates were then prepared from dissected gray matter, pooled in phosphate buffered saline and aliquoted into 1-ml portions (100 mg wet tissue/ml), which could be stored at −70° C. for 3-6 months without loss of binding signal.
(§1) For the binding assays brain homogenates were incubated with ^125I-IMPY (0.04-0.06 nM diluted in phosphate buffered saline (PBS)) and test compound (10^−5-10^−10 M diluted in PBS containing 0.1% bovine serum albumin (BSA)). […] The bound and free radioactivity was separated by vacuum filtration followed by 2×3 ml washes of PBS. Filters containing the bound ^125I ligand were assayed in a gamma counter.
as §1, with “in PBS)” for “in phosphate buffered saline (PBS))”, “0.1% BSA).” for “0.1% bovine serum albumin (BSA)).”, “bound […],” for “bound ^125I”

amyloid plaques [4] = molecular target: T1, amyloid plaques; details: AD brain homogenates; other amyloid plaque ligands; read-out: Binding Affinity (Ki vs. ^125I-IMPY), published values; cited from earlier work
AD cortical homogenates = details: cited from earlier work
[5] = Partition coefficient 1-octanol/buffer; details: 1-octanol / 0.1 M phosphate buffer pH 7.4
Description: (§3) Partition coefficients were measured by mixing ^123I-15 with 3 g each of 1-octanol and buffer (0.1 M phosphate, pH 7.4) in a test tube. The test tube was vortexed for 3 min at room temperature, followed by centrifugation for 5 min. Two weighed samples (0.5 g each) from the 1-octanol and the buffer layer were counted in a well counter. The partition coefficient was determined by calculating the ratio of cpm/g of 1-octanol to that of the buffer. Samples from the 1-octanol layer were repartitioned until consistent partitions of coefficient values were obtained from the third partition. The measurement was done in triplicate and repeated three times.
(§4) The test tube was vortexed for 3 min at room temperature, followed by centrifugation for 5 min. Two weighed samples (0.5 g each) from the 1-octanol and the buffer layer were counted in a well counter. The partition coefficient was determined by calculating the ratio of cpm/g of 1-octanol to that of the buffer. Samples from the 1-octanol layer were repartitioned until consistent partitions of coefficient values were obtained from the third partition. The measurement was done in triplicate and repeated three times.

Aβ plaques = experiment: Film autoradiography of AD brain sections; type: binding, human; details: tracer concentrations, post-mortem AD brain sections
Description: (§2) Brain sections from a patient with AD were frozen in powdered dry ice and cut into 20 μm thick sections. The sections were incubated with ^123I-15 (200,000-250,000 cpm/200 μl) for 1 hour at room temperature. The sections were then dipped in saturated Li2CO3 in 40% EtOH (2×2 min. washes) and washed with 40% EtOH (1×2 min. wash) followed by rinsing with water for 30s. After drying, the ^123I-labeled sections were exposed to Kodak MR film overnight.
as §2, with “Brains” for “Brain”, “patients” for “a patient”, “^123I-1b-3” for “^123I-15”, “30 s.” for “30s.”

[6] = Estimate of human dosimetry extrapolated from mouse data; details: proposed 5 mCi human dose, extrapolation from mouse data
physchem = details: pH 7.4
Description: as §3, §4

T1 sequence (P05067 672-711 limits assumed): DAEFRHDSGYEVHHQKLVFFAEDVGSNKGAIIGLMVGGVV
fibrillar Aβ aggregates, sequence (P05067 672-711 limits assumed): as above

In the case of `O=C(O)c1cc(/N=N/c2ccc(-c3ccc(/N=N/c4ccc(O)c(C(=O)O)c4)cc3)cc2)ccc1O` [CG, chrysamine-G], the Ki (fibrillar Aβ aggregates) is given as 370 nM.

With `CNc1ccc(/C=C/c2ccc(OCCOCCOCCF)c(I)c2)cc1` [Compound 1b-3, (E)-4-(4-(2-(2-(2-fluoroethoxy)ethoxy)ethoxy)-3-iodostyryl)-N-methylbenzenamine] the “Biodistribution Brain (% dose/g in brain)” value ([1]; 2 min) was 2.0 ± 0.4 % dose/g, the “Biodistribution Brain (% dose/g in brain)” value ([1]; 60 min) was 0.51 ± 0.09 % dose/g and the “Selectivity (binding to CNS/CV receptors)” value [2] was “No high affinity binding to any CNS receptors”. The Ki (amyloid plaques [3]) was 9 ± 1.8 nM.

With `CNc1ccc(/C=C/c2ccc(OCCOCCOCCF)cc2)cc1` [Compound 3, (E)-4-(2-(6-(2-(2-(2-fluoroethoxy)ethoxy)ethoxy)phenyl)-vinyl)-N-methylbenzamine, reference compound] the “Biodistribution Brain (% dose/g in brain)” value ([1]; 2 min) was 4.8 ± 0.2 % dose/g, the “Biodistribution Brain (% dose/g in brain)” value ([1]; 60 min) was 1.5 ± 0.2 % dose/g and the “Selectivity (binding to CNS/CV receptors)” value [2] was “No high affinity binding to any CNS receptors”. The Ki (amyloid plaques [3]) was 6.7 ± 0.3 nM.

In the case of `CC(=C(C#N)C#N)c1ccc2cc(N(C)CC[18F])ccc2c1` [FDDNP, 2-(1-{6-[(2-[^18F]fluoroethyl)(methyl)amino]-2-naphthyl}ethylidene)malononitrile], the Ki (amyloid plaques [4]) is listed as 239 nM.

In the case of `CNc1ccc(/C=C/c2ccc(O)cc2)cc1` [[^3H]SB-13], the Kd (AD cortical homogenates) is given as 2.4 ± 0.2 nM.

For `CNc1ccc(/C=C/c2ccc(OCCOCCOCCF)c([123I])c2)cc1` [^123I-1b-3], the Partition coefficient [5] was 432, the logP [5] was 2.63 and the “Labeling of Aβ plaques in AD brain sections” value (Aβ plaques) was “specifically labeled Aβ plaques; also recorded: colocalize with plaque staining by Congo Red”. For the same compound, the “Estimated exposure of lower large intestine” value [6] was “approximately 4.04 rem”, the “Estimated exposure of upper large intestine” value [6] was about 3.55 rem and the “Estimated human effective dose (ED)” value [6] was 1.1 rem. For the same compound, the “% total counted / % total recovered” value ([1]; 2 min) was 82.20 ± 6.38%, the “Biodistribution Brain” value ([1]; 2 min) was 1.01 ± 0.16 % dose/organ and the “Biodistribution Brain (% dose/g in brain)” value ([1]; 2 min) was 2.0 % dose/g and 2.05 ± 0.41 % dose/g. The “% total counted / % total recovered” value ([1]; 60 min) was 83.26 ± 6.99%, the “Biodistribution Brain” value ([1]; 60 min) was 0.26 ± 0.05 % dose/organ and the “Biodistribution Brain (% dose/g in brain)” value ([1]; 60 min) was 0.51 % dose/g and 0.51 ± 0.09 % dose/g. The “% total counted / % total recovered” value ([1]; 120 min) was 83.56 ± 6.29%, the “% total counted / % total recovered” value ([1]; 180 min) was 79.15 ± 6.31% and the “Brain penetration and clearance” value [1] was “readily penetrates and is rapidly cleared from the brain”.

In the case of `CNc1ccc(/C=C/c2cc([123I])cc(OCCO)c2)cc1` [^123I-15], the “Estimated human effective dose (ED)” value is reported as “approximately 1.1 rem”, the “Labeling of Aβ plaques in AD brain sections” value (Aβ plaques) is reported as “specifically labeled Aβ plaques” and the “% total counted / % total recovered” value ([1]; 2 min) is reported as 86.65 ± 1.34%. For the same compound, the “Biodistribution Brain” value ([1]; 2 min) was 1.49 ± 0.12 % dose/organ, the “Biodistribution Brain (% dose/g in brain)” value ([1]; 2 min) was 3.4 % dose/g and 3.40 ± 0.31 % dose/g and the “% total counted / % total recovered” value ([1]; 60 min) was 87.53 ± 4.57%. For the same compound, the “Biodistribution Brain” value ([1]; 60 min) was 0.21 ± 0.01 % dose/organ, the “Biodistribution Brain (% dose/g in brain)” value ([1]; 60 min) was 0.43 % dose/g and 0.43 ± 0.05 % dose/g and the “% total counted / % total recovered” value ([1]; 120 min) was 79.41 ± 5.56%. The “% total counted / % total recovered” value ([1]; 180 min) was 79.46 ± 5.15%, the “Brain penetration and clearance” value [1] was “readily penetrates and is rapidly cleared from the brain” and the logD (physchem) was 2.4. For the same compound, the logP (physchem) was 2.39.
